According to patent publication US20220160669A1, “PARENTERAL NUTRITION FORMULATION” (BAXTER INTERNATIONAL INC., priority 2020, published 2022):
“Also recorded” adds a separate entry of the source.

Columns and labels:
sIgA = experiment: IgA quantification (jejunal sIgA, ELISA); type: in vivo, pig; parameters: key to IgA: + denotes a positive effect (compared to standard PN); ++ a very positive effect; − denotes no difference; conditions: for IgA: compared to standard PN; for Jejunal sIgA Concentration: compared to standard PN (s-PN)
Description: (§1) Neonatal Yorkshire/Landrace cross bred piglets (n=72; six at a time from the same litter, repeating 12 times) were obtained from Oak Hill Genetics (Ewing, Ill.) after 48-hour sow reared for colostrum consumption and iron supplementation.
Small intestine probes for IgA level determination were obtained by flushing the small intestine with chilled HBSS (Hank's Balanced Salt Solution). Nasal and bronchoalveolar washings for measurement of respiratory tract IgA levels were obtained by lavage with 1 mL phosphate-buffered saline solution under anesthesia. The washings were stored in a −80° C. freezer until IgA analysis. IgA was measured in small intestinal and respiratory tract washings by sandwich enzyme-linked immunosorbent assay using a polyclonal goat anti-mouse IgA (Sigma) to coat the plate, a purified mouse IgA (Zymed Laboratories, San Francisco, Calif.) as the standard, and a horseradish peroxidase-conjugated goat anti-mouse IgA (Sigma).

[1] = test system: Neonatal Yorkshire/Landrace cross bred piglets; experiment: Duodenal mucosal resistance (Ussing chamber), PN-fed neonatal piglets; type: in vivo, pig; parameters: key to Duodenal Mucosal Resistance (Ussing chamber): +++ indicate P < 0.01; ++ indicates P < 0.05; + indicates positive trends; = denotes no significant P value; − denotes negative trends; key to Duodenal mucosal resistance, Grouping (Fisher's LSD test): Groups that do not share a letter are significantly different; ab: Groups that do not share a letter are significantly different; b: Groups that do not share a letter are significantly different; conditions: for Mean duodenal mucosal resistance: N 12; for Duodenal mucosal resistance, Grouping (Fisher's LSD test): PN group a, EN group b; for Duodenal Mucosal Resistance (Ussing chamber): compared to standard PN (s-PN)
Description: It is known also that there is a relationship between intestinal epithelial integrity and intestinal health (Thomson et al., The Ussing chamber system for measuring intestinal permeability in health and disease, BMC Gastroenterology 2019; 19:98). Impairment of barrier function has been linked to intestinal diseases such as, for example, ulcerative colitis and Crohn's disease. The so-called Ussing system offers an ex vivo measurement of the permeability or duodenal mucosal resistance. The system allows to measure said duodenal mucosal (transepithelial) resistance (TER), which can be determined to give an overall measurement of gut integrity. A low TER value is indicative of increased permeability. Prior studies have shown that decreased TER under inflammatory conditions was associated with down regulation of “sealing” tight junctional proteins. Accordingly, determining epithelial integrity by means of the Ussing chamber constituted one option to assess the influence of various nutritional options (e.g. EN vs PN) and various PN compositions (see Example 3.5) on gut health and specifically on local inflammatory incidents.
as §1
Duodenal mucosal resistance was determined according to known methods and according to Tappenden et al., Short-Chain Fatty Acid-Supplemented Total Parenteral Nutrition Enhances Functional Adaptation to Intestinal Resection in Rats. Gastroenterology 1997; 112:792-802. Pieces of intestine (1 cm^2) were cut out, and the tissue was mounted as flat sheets in incubation chambers containing oxygenated Krebs' bicarbonate buffer (pH 7.4) at 37° C. Tissue discs were preincubated in this buffer for 15 minutes to allow equilibration at this temperature. After preincubation, the chambers were transferred to other beakers containing [^3H]inulin and various 14C probe molecules in oxygenated Krebs' bicarbonate (pH 7.4 and 37° C.). The concentration of solutes was 4, 8, 16, 32, or 64 mmol/L for D-glucose and 16 mmol/L for L-glucose. The preincubation and incubation solutions were mixed at identical stirring rates with circular magnetic bars, and the stirring rates were adjusted by means of a strobe light. A stirring rate of 600 rpm was selected to achieve low effective resistance of the intestinal unstirred water. The experiment was terminated by removing the chambers and quickly rinsing the tissue in cold saline for approximately 5 seconds. The exposed mucosal tissue was then cut out of the chamber with a circular steel punch. For all probes, the tissue was dried overnight in an oven at 55° C. The dry weight of the tissue was determined, the sample was saponified with 0.75N NaOH, scintillation fluid was added (Beckman Ready Solv HP; Beckman, Mississauga, ON), and radioactivity was determined by means of […] an external standardization technique to correct for variable quenching of the two isotopes. The mucosal weight was determined after scraping of the intestine from adjacent samples not used for uptake studies. The weight of the mucosa in the samples used to measure uptake was determined by multiplying the dry weight of the intestinal sample by the percentage of the intestinal wall comprised of mucosa.

[2] = Stability of butyrate derivative compositions (sterilization, shelf-life); conditions: lipid chamber, GC-FID
[3] = test system: Neonatal Yorkshire/Landrace cross bred piglets; experiment: Intestinal histomorphology: villus height and crypt depth; type: in vivo, pig; parameters: key to Villus (total) / Crypt (total): + denotes a positive effect (compared to standard PN); ++ a very positive effect; − denotes no difference; key to Total villus height / Total crypt depth: +++ indicate P < 0.01; ++ indicates P < 0.05; + indicates positive trends; = denotes no significant P value; − denotes negative trends; conditions: for % Δ from PN, Total C (crypt depth) / % Δ from PN, Total V (villus height): sum over sections; for Crypt (total) / Villus (total): all sections, compared to standard PN; for Total crypt depth / Total villus height: compared to standard PN (s-PN)
Experimental: as §1
Formalin-fixed intestinal samples were embedded in paraffin, sliced to approximately 5-μm thickness with a microtome and stained with hematoxylin and eosin (FIG. 6). Villus height, midvillus width, and crypt depth were measured by using a Nikon Optiphot-2 microscope (Nikon, Melville, N.Y.) and ImagePro Express software (Version 4.5; Media Cybernetics, Inc, Silver Spring, Md.) in 8 to 10 well-oriented villi and crypts. Villus surface area (villus height×midvillus width) was also calculated. In addition, intestinal segment circumference was measured to estimate intestinal surface area. The results are provided in FIGS. 7 through 12 (see there for details). […] The Table summarizes the average difference (in % of each Intervention Group (A, B, C, D) versus the PN Group) of the villus height and the crypt depth in the different sections of the gut, i.e. duodenum, jejunum, ileum and colon. The Intervention Groups show an improved villus height compared to the s-PN Group.

For `CCCCCCCCCCCCCCCC(=O)OCC(COC(=O)CCC)OC(=O)CCCCCCCCCCCCCCC` (centres unmarked) [1,2-Dipalmitoyl 3-butyryl glycerol], the IgA (sIgA; 10 mmol/L in PN) was “++”, the “Mean duodenal mucosal resistance” value ([1]; 10 mmol/L TPN (Groups A, C, D)) was 15.8264 and the “Duodenal mucosal resistance, Grouping (Fisher's LSD test)” value (“Duodenal mucosal resistance, Grouping” for short) ([1]; 10 mmol/L TPN (Groups A, C, D)) was “ab”. For the same molecule, the “duodenal mucosal resistance, in words” value ([1]; 10 mmol/L TPN (Groups A, C, D), listed as D) was “significantly different from the PN; also recorded: almost as good as in Group E”, the “free butyric acid released during the sterilization of the bags” value [2] was “only very limited amounts” and the “average duodenal crypt length (crypt depth, FIG. 8)” value (from here on “average duodenal crypt length”) ([3]; 10 mmol/L TPN) was “gave the best results”. For the same molecule, the “average duodenal villous length (FIG. 7)” value ([3]; 10 mmol/L TPN) was “increased villous length compared to the other study groups”, the “average ileal crypt depth (FIG. 11)” value ([3]; 10 mmol/L TPN) was “significant difference” and the “average jejunal crypt depth (FIG. 10)” value ([3]; 10 mmol/L TPN) was “lower”. The “average jejunal villous length (FIG. 9)” value ([3]; 10 mmol/L TPN) was “relatively good results”, the “% Δ from PN, Colon C (crypt depth)” value ([3]; 10 mmol/L TPN (Groups A, C, D)) was “+12%” and the “% Δ from PN, Duodenum C (crypt depth)” value ([3]; 10 mmol/L TPN (Groups A, C, D)) was “+19%”. The “% Δ from PN, Duodenum V (villus height)” value ([3]; 10 mmol/L TPN (Groups A, C, D)) was “+31%”, the “% Δ from PN, Ileum C (crypt depth)” value ([3]; 10 mmol/L TPN (Groups A, C, D)) was “+15%” and the “% Δ from PN, Ileum V (villus height)” value ([3]; 10 mmol/L TPN (Groups A, C, D)) was “+24%”. For the same molecule, the “% Δ from PN, Jejunum C (crypt depth)” value ([3]; 10 mmol/L TPN (Groups A, C, D)) was “+2%”, the “% Δ from PN, Jejunum V (villus height)” value ([3]; 10 mmol/L TPN (Groups A, C, D)) was “+5%” and the “% Δ from PN, Total Total (crypt + villus)” value (from here on “% Δ from PN, Total Total”) ([3]; 10 mmol/L TPN (Groups A, C, D)) was “+110%”. The “% Δ from PN, Total C (crypt depth)” value ([3]; 10 mmol/L TPN (Groups A, C, D)) was “+50%”, the “% Δ from PN, Total V (villus height)” value ([3]; 10 mmol/L TPN (Groups A, C, D)) was “+60%” and the “Crypt (total)” value ([3]; 10 mmol/L in PN) was “+”. For the same molecule, the “Villus (total)” value ([3]; 10 mmol/L in PN) was “+”.

For `CCCC(=O)OCC(COC(=O)CCC)OC(=O)CCC` [Tributyrin], the IgA (sIgA; 10 mmol/L in PN) was “++”, the “Jejunal sIgA Concentration” value (sIgA; 10 mmol/L) was “++^5 (++ indicates P < 0.05)” and the IgA (sIgA; 30 mmol/L in PN) was “++”. The “Jejunal sIgA Concentration” value (sIgA; 30 mmol/L) was “++^5 (++ indicates P < 0.05)”, the “duodenal mucosal resistance, in words” value ([1]; 10 mmol/L TPN (Groups A, C, D)) was “significantly different from the PN” and the “Mean duodenal mucosal resistance” value ([1]; 10 mmol/L TPN (Groups A, C, D)) was 21.8442. The “Duodenal mucosal resistance, Grouping” value ([1]; 10 mmol/L TPN (Groups A, C, D)) was “ab”, the “Duodenal Mucosal Resistance (Ussing chamber)” value ([1]; 10 mmol/L) was “=” and the “duodenal mucosal resistance, in words” value ([1]; 30 mmol/L TPN (Group B)) was “significantly different from the PN”. The “Mean duodenal mucosal resistance” value ([1]; 30 mmol/L TPN (Group B)) was 16.0234, the “Duodenal mucosal resistance, Grouping” value ([1]; 30 mmol/L TPN (Group B)) was “ab” and the “Duodenal Mucosal Resistance (Ussing chamber)” value ([1]; 30 mmol/L) was “=”. For the same molecule, the “free butyric acid released during the sterilization of the bags” value [2] was “only very limited amounts”, the “average duodenal crypt length” value ([3]; 10 mmol/L TPN) was “gave the best results” and the “average duodenal villous length (FIG. 7)” value ([3]; 10 mmol/L TPN) was “only slightly below the mean values determined for Groups B and D”. For the same molecule, the “average ileal crypt depth (FIG. 11)” value ([3]; 10 mmol/L TPN) was “significant difference”, the “average jejunal crypt depth (FIG. 10)” value ([3]; 10 mmol/L TPN) was “lower” and the “% Δ from PN, Colon C (crypt depth)” value ([3]; 10 mmol/L TPN (Groups A, C, D)) was “+9%”. The “% Δ from PN, Duodenum C (crypt depth)” value ([3]; 10 mmol/L TPN (Groups A, C, D)) was “+11%”, the “% Δ from PN, Duodenum V (villus height)” value ([3]; 10 mmol/L TPN (Groups A, C, D)) was “+32%” and the “% Δ from PN, Ileum C (crypt depth)” value ([3]; 10 mmol/L TPN (Groups A, C, D)) was “+17%”. For the same molecule, the “% Δ from PN, Ileum V (villus height)” value ([3]; 10 mmol/L TPN (Groups A, C, D)) was “+14%”, the “% Δ from PN, Jejunum C (crypt depth)” value ([3]; 10 mmol/L TPN (Groups A, C, D)) was −8% and the “% Δ from PN, Jejunum V (villus height)” value ([3]; 10 mmol/L TPN (Groups A, C, D)) was “+14%”. For the same molecule, the “% Δ from PN, Total Total” value ([3]; 10 mmol/L TPN (Groups A, C, D)) was “+89%”, the “% Δ from PN, Total C (crypt depth)” value ([3]; 10 mmol/L TPN (Groups A, C, D)) was “+29%” and the “% Δ from PN, Total V (villus height)” value ([3]; 10 mmol/L TPN (Groups A, C, D)) was “+60%”. For the same molecule, the “Crypt (total)” value ([3]; 10 mmol/L in PN) was “+”, the “Villus (total)” value ([3]; 10 mmol/L in PN) was “+” and the Total crypt depth ([3]; 10 mmol/L) was “+”. For the same molecule, the Total villus height ([3]; 10 mmol/L) was “+”, the “average duodenal crypt length” value ([3]; 30 mmol/L TPN) was “better crypt depth than S-PN, but is not as good as Groups A, C and D” and the “average duodenal villous length (FIG. 7)” value ([3]; 30 mmol/L TPN) was “increased villous length compared to the other study groups”. For the same molecule, the “% Δ from PN, Colon C (crypt depth)” value ([3]; 30 mmol/L TPN (Group B)) was “+10%”, the “% Δ from PN, Duodenum C (crypt depth)” value ([3]; 30 mmol/L TPN (Group B)) was “+12%” and the “% Δ from PN, Duodenum V (villus height)” value ([3]; 30 mmol/L TPN (Group B)) was “+12%”. The “% Δ from PN, Ileum C (crypt depth)” value ([3]; 30 mmol/L TPN (Group B)) was “+27%”, the “% Δ from PN, Ileum V (villus height)” value ([3]; 30 mmol/L TPN (Group B)) was “+31%” and the “% Δ from PN, Jejunum C (crypt depth)” value ([3]; 30 mmol/L TPN (Group B)) was −14%. For the same molecule, the “% Δ from PN, Jejunum V (villus height)” value ([3]; 30 mmol/L TPN (Group B)) was “+5%”, the “% Δ from PN, Total Total” value ([3]; 30 mmol/L TPN (Group B)) was “+111%” and the “average jejunal crypt depth (FIG. 10)” value ([3]; 30 mmol/L TPN (Group B)) was “lower”. For the same molecule, the “% Δ from PN, Total C (crypt depth)” value ([3]; 30 mmol/L TPN (Group B)) was “+63%”, the “% Δ from PN, Total V (villus height)” value ([3]; 30 mmol/L TPN (Group B)) was “+48%” and the “Crypt (total)” value ([3]; 30 mmol/L in PN) was “++”. The “Villus (total)” value ([3]; 30 mmol/L in PN) was “++”, the Total crypt depth ([3]; 30 mmol/L) was “+” and the Total villus height ([3]; 30 mmol/L) was “+”. For the same molecule, the “average jejunal villous length (FIG. 9)” value ([3]; Group B, printed in b62 as 10 mmol/L TPN) was “relatively low”.
